Data reported in US7569724B2, “Carbamic acid compounds comprising an amide linkage as HDAC inhibitors” (Topotarget UK Limited, priority 2000, dated 2009).
Counter-ions that a name gives are not always drawn. Like-named read-outs stand apart in the source and are kept apart here.

Experiments:
HDAC (HeLa cell extract) = assay: Primary assay: deacetylase activity, HeLa cell extract as source of HDAC; type: biochemical, human; conditions: HeLa cell extract
Excerpt: Briefly, this assay relies on the release of radioactive acetate from a radioactively labelled histone fragment by the action of HDAC enzyme. Test compounds, which inhibit HDAC, reduce the yield of radioactive acetate. Signal (e.g., scintillation counts) measured in the presence and absence of a test compound provide an indication of that compound's ability to inhibit HDAC activity. Decreased activity indicates increased inhibition by the test compound.
The histone fragment was an N-terminal sequence from histone H4, and it was labelled with radioactively labelled acetyl groups using tritiated acetylcoenzyme A (coA) in conjunction with an enzyme which is the histone acetyltransferase domain of the transcriptional coactivator p300. […] The acetylated peptide was then separated from free acetyl coA by size exclusion chromatography on Sephadex G-15 (Sigma G-15-120), using distilled H2O as the mobile phase.
After purification of the radiolabelled histone fragment, it was incubated with a source of HDAC (e.g., an extract of HeLa cells (a rich source of HDAC), recombinantly produced HDAC1 or HDAC2) and any released acetate was extracted into an organic phase and quantitatively determined using scintillation counting. By including a test compound with the source of HDAC, that compound's ability to inhibit the HDAC was determined.
The HeLa cell extract was made from HeLa cells (ATCC Ref. No. CCL-2) by freeze-thawing three times in 60 mM TrisCl pH 8.0, 450 mM NaCl, 30% glycerol. Two cell volumes of extraction buffer were used, and particulate material was centrifuged out (20800 g, 4° C., 10 min). The supernatant extract having deacetylase activity was aliquotted and frozen for storage.
A source of HDAC (e.g., 2 μL of crude HeLa extract, 5 μL of HDAC1 or HDAC2; in elution buffer, as above) was incubated with 3 μL of radioactively labelled peptide along with appropriate dilutions of candidate compounds (1.5 μL) in a total volume of 150 μL of buffer (20 mM Tris pH 7.4, 10% glycerol). The reaction was carried out at 37° C. for one hour, after which the reaction was stopped by adding 20 μL of 1 M HCl/0.4 M sodium acetate. […] Radioactivity was measured using a Tri-Carb 2100TR Liquid Scintillation Analyzer (Packard).
Percent activity (% activity) for each test compound was calculated as: % activity={(S^C−B)/(S^o−B)}×100 wherein S^C denotes signal measured in the presence of enzyme and the compound being tested, S^o denotes signal measured in the presence of enzyme but in the absence of the compound being tested, and B denotes the background signal measured in the absence of both enzyme and compound being tested.

HeLa cells = assay: Secondary assay: cell proliferation WST-1, HeLa; type: cell-based; conditions: Homo sapiens, 48 h, read-out: Cell Proliferation Inhibition WST-1 (IC50 unless otherwise specified) HeLa
Method: Compounds with HDAC inhibition activity, as determined using the primary assay, were subsequently evaluated using secondary cell-based assays. The following cell lines were used:
HeLa—Human cervical adenocarcinoma cell line (ATCC ref. No. CCL-2).
Cells were plated in 96-well plates at 3-10×10^3 cells/well in 100 μL of culture medium. The following day, different concentrations of candidate compounds were added and the cells incubated at 37° C. for 48 h. Subsequently, 10 μL/well of WST-1 reagent was added and the cells reincubated for 1 hour. After the incubation time, absorbance was measured.
WST-1 is a tetrazolium salt which is cleaved to formazan dye by cellular enzymes. An expansion in the number of viable cells results in an increase in the overall activity of mitochondrial dehydrogenases in the sample. This augmentation in the enzyme activity leads to an increase in the amount of formazan dye formed, which directly correlates to the number of metabolically active cells in the culture. The formazan dye produced is quantified by a scanning multiwell spectrophotometer by measuring the absorbance of the dye solution at 450 nm wavelength (reference wavelength 690 nm).
Percent activity (% activity) in reducing the number of viable cells was calculated for each test compound as: % activity={(S^C−B)/(S^o−B)}×100 wherein S^C denotes signal measured in the presence of the compound being tested, S^o denotes signal measured in the absence of the compound being tested, and B denotes the background signal measured in blank wells containing medium only.
IC50 values were calculated using the software package Prism 3.0 (GraphPad software Inc., San Diego, Calif.), setting top value at 100 and bottom value at 0.

[1] = read-out: HDAC Inhibition (IC50 unless otherwise specified) HeLa
[2] = comparative tables, no unit in cell, read-out: HeLa IC50
[3] = comparative tables, read-out: HeLa IC50

SMILES	HDAC Inhibition HeLa, percent (HDAC (HeLa cell extract); @ 1 μM)	HDAC Inhibition HeLa, percent (HDAC (HeLa cell extract); @ 500 nM)	further results
CN(C)c1ccc(CC(=O)NCCCC(=O)NO)cc1 [PX082532, 4-(2-(4-Dimethylamino-phenyl)-acetylamino)-N-hydroxy-butyramide]	21% @ 1 μM	–	–
CN(C)c1ccc(C(=O)NCCCC(=O)NO)c2ccccc12 [PX082533]	2% @ 1 μM	–	percent HDAC inhibition at the stated concentration (HDAC (HeLa cell extract); comparative tables, @ 1 μM): 2% @ 1 μM
COc1ccc(NC(=O)CCCC(=O)NO)cc1 [PX082546, Pentanedioic acid hydroxyamide (4-methoxy-phenyl)-amide]	36% @ 1 μM	–	–
CC(C)c1ccc(NC(=O)CCCC(=O)NO)cc1 [PX082548, Pentanedioic acid hydroxyamide (4-isopropyl-phenyl)-amide]	41% @ 1 μM	–	–
COc1ccc(NC(=O)CCCC(=O)NO)cc1OC [PX082549, Pentanedioic acid (3,4-dimethoxy-phenyl)-amide hydroxyamide]	43% @ 1 μM	–	–
CN(C)c1ccc(/C=C/C(=O)NCCCC(=O)NO)cc1 [PX083447, 4-(3-(4-Dimethylamino-phenyl)-acryoylamino)-N-hydroxy-butyramide]	15% @ 1 μM	–	–
O=C(/C=C/C=C/c1ccccc1)NCCC(=O)NO [PX083448]	–	–	IC50 (HDAC (HeLa cell extract); [1]): > 1000 nM; IC50 (HDAC (HeLa cell extract); [2]): > 1000 nM
O=C(/C=C/c1ccc([N+](=O)[O-])cc1)NCCCC(=O)NO [PX083803, N-Hydroxy-4-(3-4-(nitro-phenyl)-acryoylamino)-butyramide]	15% @ 1 μM	–	–
O=C(/C=C/c1ccc(C(F)(F)F)cc1)NCCCC(=O)NO [PX083804, N-Hydroxy-4-(3-4-(trifluoromethyl-phenyl)-acryoylamino)-butyramide]	14% @ 1 μM	–	–
O=C(/C=C/c1ccccc1)NCCC(=O)NO [PX083806]	19% @ 1 μM	–	–
O=C(/C=C/c1ccc([N+](=O)[O-])cc1)NCCC(=O)NO [PX083807, N-(2-Hydroxycarbamoyl-ethyl)-3-(4-nitro-phenyl)-acryamide]	9% @ 1 μM	–	–
O=C(/C=C/C=C/c1ccccc1)NCCCC(=O)NO [PX083808]	–	–	IC50 (HDAC (HeLa cell extract); [1]): 20000 nM; IC50 (HDAC (HeLa cell extract); [2]): > 20000 nM
COc1ccc(C(=O)NCCCCC(=O)NO)cc1 [PX089048, N-(4-Hydroxycarbamoyl-butyl)-4-methoxy-benzamide]	34% @ 1 μM	–	–
O=C(CCCCNC(=O)c1ccccc1)NO [PX089049, N-(4-Hydroxycarbamoyl-butyl)-benzamide]	–	–	IC50 (HDAC (HeLa cell extract); [1]): > 1000 nM
CN(C)c1ccc(C(=O)NCCCCCC(=O)NO)cc1 [PX089274, 4-Dimethylamino-N-(5-hydroxycarbamoyl-pentyl)-benzamide]	–	–	IC50 (HDAC (HeLa cell extract); [1]): 109 nM; IC50 (HDAC (HeLa cell extract); [3]): 110 nM; IC50 (HeLa cells): 4400 nM
O=C(/C=C/c1ccc(C(F)(F)F)cc1)NCCC(=O)NO [PX089283, N-(2-Hydroxycarbamoyl-ethyl)-3-(4-trifluoromethyl-phenyl)-acryamide]	21% @ 1 μM	–	–
O=C(CC(=O)NCCc1ccccc1)NO [PX099268]	–	–	HDAC Inhibition HeLa, percent (HDAC (HeLa cell extract); @ 10 μM): 18% @ 10 μM
CN(C)c1ccc(C=CC(=O)NCCCCCC(=O)NO)cc1 [PX105533]	–	–	IC50 (HDAC (HeLa cell extract); [2]): 18 nM
CN(CCCC(=O)NO)C(=O)/C=C/C=C/c1ccccc1 [PX105668]	–	–	IC50 (HDAC (HeLa cell extract); [1]): > 10000 nM

SMILES	HDAC Inhibition HeLa, percent (HDAC (HeLa cell extract); @ 1 μM)	HDAC Inhibition HeLa, percent (HDAC (HeLa cell extract); @ 500 nM)	further results
COc1ccc(/C=C/C=C/C(=O)NCCCC(=O)NO)cc1 [PX105670]	29% @ 1 μM	–	–
O=C(/C=C/C=C/c1ccc(Br)cc1)NCCCC(=O)NO [PX105816, (2E)(4E)-5-(4-Bromophenyl)penta-2,4-dienoic acid (3-hydroxycarbamoylpropyl)amide]	–	20% @ 500 nM	–
O=C(/C=C/C=C/c1ccccc1)NCCCCC(=O)NO [PX105832, (2E)(4E)-5-Phenylpenta-2,4-dienoic acid (4-hydroxycarbamoyl-butyl)amide]	–	–	IC50 (HDAC (HeLa cell extract); [1]): 438 nM; IC50 (HDAC (HeLa cell extract); [2]): 438 nM
O=C(/C=C/C=C/c1ccc(Cl)cc1)NCCCC(=O)NO [PX105845, (2E)(4E)-5-(4-Chlorophenyl)-penta-2,4-dienoic acid (3-hydroxycarbamoylpropyl)-amide]	–	22% @ 500 nM	–
O=C(/C=C\C=C\c1ccc(Br)cc1)NCCCC(=O)NO [PX105846, (2Z)(4E)-5-(4-Bromophenyl)penta-2,4-dienoic acid (3-hydroxycarbamoyl-propyl)amide]	–	46% @ 500 nM	–
O=C(/C=C/c1ccccc1)NCCCCCC(=O)NO [PX106517, N-(5-Hydroxycarbamoylpentyl)-3-phenylacrylamide]	–	–	IC50 (HDAC (HeLa cell extract); [1]): 83 nM; IC50 (HDAC (HeLa cell extract); [3]): 83 nM; IC50 (HeLa cells): 470 nM
Nc1nonc1C(=O)NCCCCCC(=O)NO [PX106519, 4-Aminofurazan-3-carboxylic acid (5-hydroxycarbamoylpentyl)amide]	–	46% @ 500 nM	–
O=C(/C=C/c1ccncc1)NCCCCCC(=O)NO [PX106521, (E)-N-(5-Hydroxycarbamoylpentyl)-3-pyridin-4-yl-acrylamide oxalate]	–	–	IC50 (HDAC (HeLa cell extract); [1]): 138 nM; IC50 (HeLa cells): 46000 nM
CC(/C=C/c1ccccc1)=C\C(=O)NCCCCCC(=O)NO [PX106526, (2E,4E)-3-Methyl-5-phenylpenta-2,4-dienoic acid (5-hydroxycarbamoylpentyl)-amide]	–	–	IC50 (HeLa cells): 2100 nM
O=C(/C=C/c1ccccn1)NCCCCCC(=O)NO [PX106528, (E)-N-(5-Hydroxycarbamoylpentyl)-3-pyridin-2-yl-acrylamide oxalate]	–	67% @ 500 nM	–
O=C(CCCCCNC(=O)CCCc1ccccc1)NO [PX116210, N-Hydroxy-6-[(4-phenylbutanoyl)amino]hexanamide]	–	19% @ 500 nM	–
O=C(CCCCCNC(=O)c1ccoc1)NO [PX116219, Furan-3-carboxylic acid (5-hydroxycarbamoyl-pentyl)-amide]	–	26% @ 500 nM	–
O=C(/C=C/C=C/c1ccco1)NCCCCCC(=O)NO [PX116230]	–	–	HDAC Inhibition (IC50 unless otherwise specified) HeLa (HDAC (HeLa cell extract)): insoluble
O=C(/C=C/c1cccnc1)NCCCCCC(=O)NO [PX116231, E-N-(5-Hydroxycarbamoyl-pentyl)-3-pyridin-3-yl-acrylamide oxalate]	–	51% @ 500 nM	–
O=C(CCCCCCC(=O)NCCc1nc2ccccc2[nH]1)NO [PX116241, N^1-[2-(1H-Benzimidazol-2-yl)ethyl]-N^8-hydroxyoctanediamide]	–	39% @ 500 nM	IC50 (HeLa cells): 56000 nM
O=C(/C=C/c1ccc(NC(=O)c2ccc3ccccc3c2)cc1)NO [PX116246, Naphthalene-2-carboxylic acid [4-(2-hydroxycarbamoyl-vinyl)-phenyl]-amide]	–	52% @ 500 nM	–
O=C(/C=C/c1ccc(NC(=O)c2ccccc2)cc1)NO [PX117231, N-[4-(2-Hydroxycarbamoyl-vinyl)-phenyl]-benzamide]	–	72% @ 500 nM	percent HDAC inhibition at the stated concentration (HDAC (HeLa cell extract); comparative tables, @ 1 μM): 72% @ 1 μM
O=C(CCc1ccc(NC(=O)c2ccccc2)cc1)NO [PX117232, N-[4-(2-Hydroxycarbamoyl-ethyl)-phenyl]-benzamide]	–	43% @ 500 nM	percent HDAC inhibition at the stated concentration (HDAC (HeLa cell extract); comparative tables, @ 1 μM): 43% @ 1 μM
O=C(CCCCCCC(=O)Nc1ccccc1)NO [SAHA, Suberoylanilide Hydroxamic Acid, reference compound]	–	–	IC50 (HeLa cells): 2200 nM
